In US20210244712A1, “METHODS FOR TREATING PATIENTS WITH CANCER HAVING DEFECTS IN CYCLIN D REGULATION” (NysnoBio Ireland DAC, priority 2018, published 2021):

How the values were obtained:
[1] = test system: HCT-116; assay: Senescence quantification (SA-βGal), Example 6A; assay type: cell-based; details: Compound 42 250 nM, Palbociclib 1 μM
Procedure: Day 1: 96 well plate was seeded with 4000 cells/well and incubated for 24 hours at 37° C. […]
Day 6: Senescence cells histochemical Staining Kit (Sigma) was used. The growth medium form the cells were aspirated then washed twice with fresh […]. […] 100 μL filtered Fixation Buffer was added per well and the plate was incubated for 6-7 minutes at room temperature. Then, the cells were rinsed 3 times with PBS. 50 μL of the Staining Mixture was added per well and incubated at 37° C. overnight without CO2 (staining is pH dependent). After staining, the Staining Mixture was removed, PBS and Hoechst dye (1 μg/mL) were added. Ten images were taken with Epifluorescence Microscope using the blue filter and 10 images were taken in the brightfield. The images were used to count the total cell number—the positive blue cells were counted in the bright field. The percentage of cells expressing β-galactosidase was calculated.
Method 1: Mammalian β-Galactosidase Assay Kit (Thermo Scientific) was used. […] The cells were washed once with PBS. 100 μL of the β-Galactosidase Assay Reagent was added to each well and the plate was covered and incubated for 30 minutes at 37° C. without CO2. The absorbance was measured at 405 nm. […]
Method 2: Assay of a portion of the lysate. […] 25 μL of lysate was removed and use it for Protein Quantification (BCA). […]
Senescence was quantified according to Example 4. […]

[2] = test system: cyclin D1; assay: Western blot of Cyclin D1 in Mino cells, Example 6C; assay type: cell-based; details: compared to control (DMSO)
Procedure: Mino cells have a chromosomal translocation of the Cyclin D gene that increases expression of cyclin D1. Western blot analysis was then carried out to look at Cyclin D1 (Abeam—ab134175) and GAPDH (Sigma—G9545) levels after treatment with Compounds F, S3, 42, and 146.

[3] = test system: cyclin D1; assay: Western blot of Cyclin D1, Example 6B; assay type: cell-based; details: 250 nM, 24 h, compared to control (DMSO)
Procedure: Cells were plated at a density of 3×10^5 cells/well for 24 hrs. Representative compounds or DMSO alone was then added to the wells for 24 h at 250 nM (note: Compound F was administered at a concentration of 2 μM). Cells were trypsinised, pelleted, washed ×3 in PBS, and lysed using a 2% SDS lysis solution (Sigma—05030).
Western blot analysis was then carried out to look at Cyclin D1 (Abeam—ab134175), PRK8 (Sigma—P6248), Rb (Abeam—[…]) and GAPDH (Sigma—G9545) levels.

[4] = test system: ubiquitinated proteins; assay: Mechanistic study: Ub (FK-2) western blot; assay type: cell-based; details: ES-2; epoxomicin 60 nM; 18 hours
Procedure: In order to establish that the decrease in Cyclin D seen after Compound 42 treatment is due to proteasomal degradation, ES-2, ovarian cancer cell line was treated with Compound 42 (250 nM) in the presence or absence of epoxomicin, a specific inhibitor of the proteasome (60 nM) for 18 hours. Following the treatment, western blotting for Cyclin D (FIG. 10A), Ub (FK-2) (FIG. 10B), and GAPDH control (bottom blot, below FIGS. 10A and 10B) was performed. Epoxomicin is a specific inhibitor of the proteasome.

[5] = HCT-116 xenograft model, body weight and adverse events; assay type: in vivo; details: Groups 2-6 of Table 8; IP daily for 20 days
Procedure: (§1) Treatments were initiated when turner volume reached 100-150 mm^3. Treatments started on Day 5. Test compounds were administered intraperitoneally (II′) in 10 mg/mL solution comprising 10% N,N-dimethyl acetamide, 15% macrogol 15 hydroxy stearate, polyethylene glycol-15-hydroxystearate, and 75% aqueous hydroxypropyl-beta-cyclodextrin.
(§2) Observation and data collection: After tumor cells inoculation, the animals were checked daily for morbidity and mortality. At the time of routine monitoring, the animals were checked for any adverse effects of tumor growth and treatments on normal behavior such as mobility, visual estimation of food and water consumption, body weight gain/loss, eye/hair matting and any other abnormal effects, Death and observed clinical signs were recorded, per […] IACUC. Tumor volumes were measured every 3-4 days in two dimensions using an electronic caliper, sad the volume data are expressed in, mm3 using the formula: V=0.5 a×b^2 where a and b are fee long and short diameters of the tumor, respectively. Dosing and tumor volume measurement procedures were conducted in a Laminar Flow Cabinet according to Altogen Labs IACUC regulations.
Body weight loss daring fee study: Sacrifice fee mouse when one measurement of body weight loss (BWL)>20% (only for control animals). Animal research associated wife this study was conducted under Altogen Labs IACUC regulatory space. Altogen Labs IACUC guidelines were followed in case of BWL and any other conditions.

[6] = test system: HCT-116 xenograft; assay: Subcutaneous HCT-116 xenograft model, tumor volume; assay type: in vivo, nude mice; details: Groups 2-6 of Table 8 (Compound 42 1 and 5, Q3 5 and 15, F 25 mg/kg); IP daily for 20 days; 28 days; vs control
Procedure: The efficacy of Compound 42, Compound F, and Compound Q3 were evaluated in the treatment of subcutaneous HCT-116 xenograft model in nude mice.
Cell Culture: HCT-116 tumor cell lines were maintained in vitro as a monolayer culture in DMEM medium supplemented with 10% fetal bovine serum at 37° C. in an atmosphere of 5% CO2 in air. The tumor cells were routinely subcultured twice weekly by trypsin-EDTA treatment (0.05% Trypsin-EDTA) and 1:4 split: The cells in an exponential growth phase were harvested and counted for tumor inoculation.
Tumor Inoculation: Each, mouse was inoculated subcutaneously at the flank region with HCT-1.16 cells (1.0×106) in 0.1 ml of 1×PBS mixed with Matrigel (1:1) for tumor development. The day Xenotransplantation was performed is denoted as day 0.
Thirty (30) animals with approx 100-150 mm^3 tumors were selected for HCT-116 follow up experiment and randomly placed Into Groups 1, 2, […], 4, 5, and 6 as shown in Table 8.
Group Assignment: Before grouping and treatment, all animals were weighed and fee tumor volumes were confirmed (100-150 mm^3) using electronic caliper. Since the tumor volume can affect fee effectiveness of any given treatment mice into groups using randomized block design as following: First the experimental animals were divided into homogeneous blocks based on their tumor volume. Secondly, within each block, randomization of experimental animals to different groups By using randomized block design to assign experimental animals, we ensure that each animal has the same probability of being assigned to any given treatment groups and therefore systematic error is minimized.
as §1, §2
Statistics: Summary statistics, the mean and the standard error of the mean (SEM), are provided for the tumor volume of each group at each time point. Statistical analysis of difference in tumor volume among the groups and the analysis of drug interaction were conducted on the data obtained after the final dose.

| SMILES | cyclin D expression [2] | Cyclin D1 expression ([3]; HCT-116) | Cyclin D1 expression ([3]; TOV-112) | further results |
| --- | --- | --- | --- | --- |
| CC(=O)c1c(C)c2cnc(Nc3ccc(N4CCNCC4)cn3)nc2n(C2CCCC2)c1=O [palbociclib, reference compound] | – | – | – | apoptosis or other cell death [1]: No apoptosis or other cell death was observed |
| Cc1ccccc1C(=O)Nc1nc(-c2ncccc2C)nn1-c1cccc(F)c1 [Compound 146] | appreciably reduce Cyclin D expression | reduction of Cyclin D1 expression | reduction of Cyclin D1 expression | – |
| CC[C@H](C)[C@H](NC(=O)[C@H]([C@@H](C)CC)N(C)C(C)=O)C(=O)N[C@H](C(=O)N[C@@H](CC(C)C)C(=O)[C@@]1(C)CO1)[C@@H](C)O [epoxomicin] | – | – | – | ubiquitinated proteins (FK-2 antibody) [4]: overall increase of ubiquitinated proteins |
| Cc1ccccc1C(=O)Nc1nc(NC(=O)c2ccccc2C)n(-c2ccc(Cl)cc2)n1 [Compound Q3] | – | – | – | weight loss or adverse events [5]: No weight loss or any adverse events; tumor growth (tumor volume) [6]: reduce the tumor growth |
| Cc1ccccc1C(=O)Nc1nc(-c2ncccc2C)nn1-c1ccccc1 [Compound S3] | appreciably reduce Cyclin D expression | reduction of Cyclin D1 expression | reduction of Cyclin D1 expression | – |
